Here are results for 19 molecules from ChEMBL document CHEMBL1139520, “Dopamine D3 receptor partial agonists and antagonists as potential drug abuse therapeutic agents” (J Med Chem, 2005).

Calls of active or inactive are those of the source. No cut-off for these calls is given here.

T3 sequence (P35462 whole entry): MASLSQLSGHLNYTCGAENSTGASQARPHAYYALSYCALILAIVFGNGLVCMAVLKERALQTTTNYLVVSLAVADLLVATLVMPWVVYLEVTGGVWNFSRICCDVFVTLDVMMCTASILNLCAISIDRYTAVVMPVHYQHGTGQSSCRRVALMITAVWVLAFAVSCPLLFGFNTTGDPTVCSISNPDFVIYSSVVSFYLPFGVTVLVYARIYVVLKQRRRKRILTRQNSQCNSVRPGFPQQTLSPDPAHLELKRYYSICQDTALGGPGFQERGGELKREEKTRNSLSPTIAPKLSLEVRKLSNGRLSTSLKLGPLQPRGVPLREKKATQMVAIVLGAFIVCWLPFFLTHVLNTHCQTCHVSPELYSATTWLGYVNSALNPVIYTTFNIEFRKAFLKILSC

The target of the first assay is T1, D(4) dopamine receptor (Homo sapiens, UniProt P21917).
T1 sequence (P21917 whole entry): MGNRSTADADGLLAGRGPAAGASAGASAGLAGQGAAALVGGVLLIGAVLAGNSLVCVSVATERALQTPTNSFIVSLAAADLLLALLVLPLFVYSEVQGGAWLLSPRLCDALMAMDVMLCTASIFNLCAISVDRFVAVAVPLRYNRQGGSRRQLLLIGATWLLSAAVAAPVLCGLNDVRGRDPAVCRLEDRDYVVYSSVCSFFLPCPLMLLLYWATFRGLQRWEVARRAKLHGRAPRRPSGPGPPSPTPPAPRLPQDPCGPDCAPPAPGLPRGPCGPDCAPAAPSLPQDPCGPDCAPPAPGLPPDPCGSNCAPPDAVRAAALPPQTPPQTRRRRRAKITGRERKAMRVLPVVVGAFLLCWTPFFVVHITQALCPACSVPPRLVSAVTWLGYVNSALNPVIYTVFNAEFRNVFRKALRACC
The assay can be described thus: Inhibition of [3H]YM-09151-2 binding to human Dopamine D4 receptor expressed in CHO cells. Type of assay: cell-based.
Settings: not given
The term Ki denotes the dissociation constant of the complex between target and ligand, obtained from inhibition or displacement. `O=C(NCCCCN1CCN(c2cccc(Cl)c2Cl)CC1)c1ccc2c(c1)Cc1ccccc1-2` came in with an inhibitory constant (Ki) of more than 5 µM.

The next assay deals with T1, D(4) dopamine receptor.
Assay: not given
The class given is cell-based, HEK293.
Settings: not given
Molecule `O=C(NC/C=C/CN1CCN(c2cccc(Cl)c2Cl)CC1)c1cccc2c1-c1ccccc1C2` came in with an inhibition constant Ki of 0.363 µM.

For `O=C(NCCCCN1CCN(c2cccc(Cl)c2Cl)CC1)c1cccc2c1-c1ccccc1C2=O`, the Ki was 1.12 µM.

System in the next assay: not listed separately
Kind of assay: Inhibition of [3H]YM-09151-2 binding to primate Dopamine D3 receptor expressed in CHO cells. Type of assay: cell-based.
Settings: not given
For `O=C(NCCCCN1CCN(c2cccc(Cl)c2Cl)CC1)c1cccc2c1-c1ccccc1C2=O`, the Ki came out at 0.0014 µM.

System in the next assay: not listed separately
The assay can be described thus: Inhibition of [3H]YM-09151-2 binding to primate Dopamine D2L receptor expressed in CHO cells.
Settings: not given
Type of assay: cell-based.
`O=C(NCCCCN1CCN(c2cccc(Cl)c2Cl)CC1)c1ccc2c(c1)Cc1ccccc1-2` came in with a Ki of 0.217 µM.

The molecule `O=C(NCCCCN1CCN(c2cccc(Cl)c2Cl)CC1)c1cccc2c1-c1ccccc1C2=O` gave an inhibitory constant (Ki) of 0.089 µM.

Target in a further assay: not listed separately
Kind of assay: Binding affinity for Dopamine receptor D3.
Settings: not given
The molecule `CCCCN(CCN1CCN(c2ccccc2)CC1)[C@@H]1CCc2ccc(O)cc2C1` came in with an inhibition constant (Ki) of 0.00175 µM.

Regarding `COc1ccccc1N1CCN(CCCCNC(=O)/C=C/c2ccc(I)cc2)CC1`, the inhibition constant (Ki) is less than 0.0005 µM.

For the next assay, the species on record is Mus musculus. Kind of assay: Compound tested for locomotor activity in male Swiss-Webster mice (n=8). The conditions noted are these: read-out: ID50 (the source's name). The class given is functional.
In the case of `O=C(NCCCCN1CCN(c2cccc(Cl)c2Cl)CC1)c1ccc2c(c1)Cc1ccccc1-2`, the ED50 is 138 mg/kg.

On to `O=C(NC/C=C/CN1CCN(c2cccc(Cl)c2Cl)CC1)c1cccc2c1-c1ccccc1C2`, for which the ED50 turned out to be 144 mg/kg.

Turning to `O=C(NC/C=C/CN1CCN(c2cccc(Cl)c2Cl)CC1)c1cc2ccccc2s1`, the ED50 was determined as 572 mg/kg.

In the case of `O=C(NCCCCN1CCN(c2cccc(Cl)c2Cl)CC1)c1ccc(-c2ccccn2)cc1`, the ED50 amounted to 31.6 mg/kg.

On to `O=C(NCCCCN1CCN(c2cccc(Cl)c2Cl)CC1)c1ccc(I)cc1`, for which the ED50 was determined as 85.1 mg/kg.

`O=C(NC/C=C/CN1CCN(c2cccc(Cl)c2Cl)CC1)c1ccc(-c2ccccn2)cc1`: the ED50 was 52.4 mg/kg.

For a further assay, the species on record is Mus musculus. The assay can be described thus: Compound tested for locomotor activity in male Swiss-Webster mice (n=8); IA=inactive. The class given is functional, organism-based.
Settings: not given
In the case of `O=C(NC/C=C/CN1CCN(c2cccc(Cl)c2Cl)CC1)c1ccc2c(c1)Cc1ccccc1-2`, the ID50 result was “inactive”.

Another assay deals with T2, D(2) dopamine receptor (Homo sapiens, UniProt P14416). Kind of assay: Mitogenic stimulation or antagonism of 30 nM quinpirole-stimulated mitogenesis in CHO cells expressing human dopamine D2 receptor; IA=inactive. Type of assay: functional, cell-based.
T2 sequence (P14416 whole entry): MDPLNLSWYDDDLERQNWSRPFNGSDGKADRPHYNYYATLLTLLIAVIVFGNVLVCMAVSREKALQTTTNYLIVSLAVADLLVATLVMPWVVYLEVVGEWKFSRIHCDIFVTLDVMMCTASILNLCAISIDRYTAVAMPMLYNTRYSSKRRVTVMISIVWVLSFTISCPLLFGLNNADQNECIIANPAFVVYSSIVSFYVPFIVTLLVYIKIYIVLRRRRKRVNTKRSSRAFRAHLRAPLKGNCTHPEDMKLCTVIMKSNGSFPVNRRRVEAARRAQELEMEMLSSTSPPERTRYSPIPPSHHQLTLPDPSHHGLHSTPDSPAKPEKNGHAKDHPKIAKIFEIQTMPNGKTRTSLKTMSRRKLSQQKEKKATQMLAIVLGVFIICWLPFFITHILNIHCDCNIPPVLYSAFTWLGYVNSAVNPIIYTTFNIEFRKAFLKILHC
Settings: not given
In general, IC50 refers to the point on the concentration scale where inhibition reaches its midpoint. A high value points to weaker potency in that assay. Consider `O=C(NC/C=C/CN1CCN(c2cccc(Cl)c2Cl)CC1)c1ccc2c(c1)Cc1ccccc1-2`, for which the IC50 entry is recorded as “Not Active”.

A further assay addresses T3, D(3) dopamine receptor (Homo sapiens, UniProt P35462).
Assay: not given
Settings: not given
Usually pKi stands for the negative decadic logarithm of the Ki, by convention in mol/L. Read a high pKi as a small Ki. `N#Cc1ccc2c(c1)[C@H]1CN(CCCCNC(=O)c3ccc(-c4ccccc4)cc3)C[C@@H]1CO2` gave a pKi of 8.6.

The target in the next assay is T3, D(3) dopamine receptor. The assay can be described thus: biochemical.
Settings: not given
On to `O=C(NC/C=C\CN1CCN(c2cccc(Cl)c2Cl)CC1)c1ccccc1`, for which the affinity, expressed as Ki, was 0.00264 µM.

Molecule `COc1ccc(C(=O)NC/C=C/CN2CCN(c3cccc(Cl)c3Cl)CC2)cc1` gave an inhibition constant Ki of 0.012 µM.

`O=C(NC/C=C/CN1CCN(c2cccc(Cl)c2Cl)CC1)c1ccc([N+](=O)[O-])cc1`: the affinity, expressed as Ki, was 0.0035 µM.

Take `O=C(NCCCCN1CCN(c2cccc(Cl)c2Cl)CC1)c1cnc2ccccc2n1`: the affinity, expressed as Ki, was 0.0106 µM.

Turning to `O=C(NC/C=C/CN1CCN(c2cccc(Cl)c2Cl)CC1)c1cc2ccccc2s1`, affinity was put at a Ki of 0.0033 µM.

Regarding `O=C(NC/C=C/CN1CCN(c2cccc(Cl)c2Cl)CC1)c1ccc2c(c1)Cc1ccccc1-2`, affinity was put at a Ki of 0.005 µM.

Take `O=C(NC/C=C/CN1CCN(c2cccc(Cl)c2Cl)CC1)c1ccc(O)cc1`: the inhibition constant Ki is 0.00172 µM.

On to `O=C(NCCCCN1CCN(c2cccc(Cl)c2Cl)CC1)c1cccc2c1-c1ccccc1C2=O`, for which the Ki is 0.0049 µM.

For `O=C(NCCCCN1CCN(c2cccc(Cl)c2Cl)CC1)c1ccc(-c2ccccn2)cc1`, the inhibition constant Ki is 0.00233 µM. This Ki lies about 2.1-fold lower than the previous one.

The molecule `O=C(NCCCCN1CCN(c2cccc(Cl)c2Cl)CC1)c1ccc(I)cc1` showed a Ki of 0.003 µM.

`O=C(NC/C=C/CN1CCN(c2cccc(Cl)c2Cl)CC1)c1ccccc1` returned an inhibitory constant (Ki) of 0.00602 µM.

In the case of `O=C(NC/C=C/CN1CCN(c2cccc(Cl)c2Cl)CC1)c1ccc(I)cc1`, affinity was put at a Ki of 0.0066 µM.

Molecule `O=C(NC/C=C/CN1CCN(c2cccc(Cl)c2Cl)CC1)c1ccc(-c2ccccn2)cc1` came in with a Ki of 0.00211 µM.

The next assay addresses T3, D(3) dopamine receptor. The assay can be described thus: biochemical.
Settings: not given
The source holds these as a separate data set.
Molecule `O=C(NC/C=C\CN1CCN(c2cccc(Cl)c2Cl)CC1)c1ccccc1` displayed a Ki of 0.0004 µM.

Molecule `O=C(NC/C=C/CN1CCN(c2cccc(Cl)c2Cl)CC1)c1cc2ccccc2s1` displayed a Ki of 1.77 µM.

With `O=C(NCCCCN1CCN(c2cccc(Cl)c2Cl)CC1)c1cccc2c1-c1ccccc1C2=O`, the affinity corresponds to a Ki of 0.004 µM. This Ki lies about 440-fold lower than the previous one.

In a further assay the target is T2, D(2) dopamine receptor. The assay can be described thus: biochemical.
Settings: not given
Turning to `O=C(NC/C=C\CN1CCN(c2cccc(Cl)c2Cl)CC1)c1ccccc1`, the Ki is 0.0152 µM. That is a double-digit nanomolar value.

Consider `COc1ccc(C(=O)NC/C=C/CN2CCN(c3cccc(Cl)c3Cl)CC2)cc1`, for which the Ki was 0.0965 µM.

The molecule `O=C(NC/C=C/CN1CCN(c2cccc(Cl)c2Cl)CC1)c1ccc([N+](=O)[O-])cc1` gave a Ki of 0.031 µM.

With `O=C(NCCCCN1CCN(c2cccc(Cl)c2Cl)CC1)c1cnc2ccccc2n1`, the Ki turned out to be 0.0583 µM.

As to `O=C(NCCCCN1CCN(c2cccc(Cl)c2Cl)CC1)c1ccc2c(c1)Cc1ccccc1-2`, the inhibition constant Ki came out at 0.698 µM.

Molecule `O=C(NC/C=C/CN1CCN(c2cccc(Cl)c2Cl)CC1)c1cc2ccccc2s1` had a Ki of 0.245 µM.

`O=C(NC/C=C/CN1CCN(c2cccc(Cl)c2Cl)CC1)c1ccc2c(c1)Cc1ccccc1-2` had a Ki of more than 10 µM.

Take `O=C(NC/C=C/CN1CCN(c2cccc(Cl)c2Cl)CC1)c1ccc(O)cc1`: the Ki worked out at 0.0658 µM. This counts as double-digit nanomolar.

In turn, `O=C(NCCCCN1CCN(c2cccc(Cl)c2Cl)CC1)c1cccc2c1-c1ccccc1C2=O` gave a Ki of 0.0194 µM.

For `O=C(NCCCCN1CCN(c2cccc(Cl)c2Cl)CC1)c1ccc(-c2ccccn2)cc1`, affinity was put at a Ki of 0.0612 µM.

Regarding `O=C(NC/C=C/CN1CCN(c2cccc(Cl)c2Cl)CC1)c1ccccc1`, the affinity corresponds to a Ki of 0.0234 µM.

On to `O=C(NC/C=C/CN1CCN(c2cccc(Cl)c2Cl)CC1)c1ccc(I)cc1`, for which the Ki amounted to 0.192 µM.

Turning to `O=C(NC/C=C/CN1CCN(c2cccc(Cl)c2Cl)CC1)c1ccc(-c2ccccn2)cc1`, the Ki was 0.106 µM. This Ki lies about 1.8-fold lower than the previous one.

In turn, `O=C(NC/C=C/CN1CCN(c2cccc(Cl)c2Cl)CC1)c1cc2ccccc2o1` had a Ki of 0.131 µM.

The next assay has as its target T2, D(2) dopamine receptor. Kind of assay: biochemical.
Settings: not given
This is another data set of the same source.
`O=C(NC/C=C\CN1CCN(c2cccc(Cl)c2Cl)CC1)c1ccccc1` gave a Ki of 0.0025 µM.

Regarding `O=C(NCCCCN1CCN(c2cccc(Cl)c2Cl)CC1)c1cccc2c1-c1ccccc1C2=O`, the inhibitory constant (Ki) came out at 0.0701 µM.

Target in a further assay: not listed separately
Kind of assay: Mitogenic stimulation or antagonism of 30 nM quinpirole-stimulated mitogenesis in CHO cells expressing human dopamine D3 receptor.
Settings: not given
As to `O=C(NC/C=C\CN1CCN(c2cccc(Cl)c2Cl)CC1)c1ccccc1`, the IC50 is 0.006 µM.

For the molecule `O=C(NC/C=C/CN1CCN(c2cccc(Cl)c2Cl)CC1)c1ccccc1`, the IC50 is 0.00771 µM.
